pIC50: −log10 of the molar value.
Experiments:
AsPC-1 cells = experiment: AsPC-1 CTG proliferation assay (120 h) (pancreatic cancer, G12D); format: cell-based; conditions: Homo sapiens, ASPC1
Method in brief: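 AsPC-1 cells (KRAS G12D), 2000/well in RPMI with 10% FCS, seeded overnight, then treated with compound for 120 h at 37 °C. Viability by CellTiter-Glo luminescence as percent of DMSO control. IC50 from a four-parameter non-linear fit.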

SK-CO-1 cells = experiment: SK-CO-1 CTG proliferation assay (120 h) (CRC, G12V); format: cell-based; conditions: Homo sapiens; SK-CO-1 cells (CRC, G12V), CTG 120 h
Method in brief: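 SK-CO-1 colorectal cells (KRAS G12V), 500 per well in EMEM + 10% FCS, dosed with compound the day after seeding and grown 120 h at 37 °C. Viability by CellTiter-Glo luminescence as percent of DMSO control; IC50 from four-parameter non-linear regression.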

[1] = Metabolic (microsomal) stability assay, human liver microsomes (HLM); format: in vitro ADME; conditions: predicted clearance as percent of liver blood flow, 1 μM
Method in brief: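 LC-MS/MS tracked parent disappearance at 0, 5, 15, 30 and 60 min in NADPH-initiated incubations with 1 mg/mL human microsomal protein and 1 μM compound at 37°C, pH 7.5. First-order fits gave intrinsic clearance, which was scaled up and reported as % QH. NADPH-free controls were also run.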

[2] = Plasma protein binding assay (PPB), equilibrium dialysis, 10% FCS in PBS; format: in vitro ADME; conditions: bovine, read-out: PPB 10% FCS (% fu)
Method in brief: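 Equilibrium dialysis (5-10 kg/mol cut-off membrane) of 1-10 μmol/L test compound in 10% FCS/PBS against PBS with or without dextran, 3-5 h at 37° C. Compound in each chamber quantified by LC-MS after protein precipitation; fu calculated from Cserum and Cbuffer.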

SMILES	pIC50 (AsPC-1 cells)	pIC50 (SK-CO-1 cells)	HLM QH [1] [%]	fraction unbound [2]
COc1c(O[C@@H](C)[C@@H]2CCCN2C)nc(-c2noc3c2CCC[C@@]32CCCc3sc(N)c(C#N)c32)nc1-n1ccc(C(N)=O)n1 [II-159]	5.72	6.88	40	0.21
CO[C@@H]1C[C@@H]([C@H](C)Oc2cc(N3CCNC4(CC4)C3)nc(-c3noc4c3CCC[C@@]43CCCc4sc(N)c(C#N)c43)n2)N(C)C1 [II-187]	7.52	6.34	46	0.14
C[C@H](Oc1cc(-n2cc3c(n2)CNC3)nc(-c2noc3c2CCC[C@@]32CCCc3sc(N)c(C#N)c32)n1)[C@@H]1C[C@@H](F)CN1C [II-154]	5.99	5.67	76	0.1
CC(=O)N1CCN(c2cc(O[C@@H](C)[C@@H]3CCCN3C)nc(-c3noc4c3CCC[C@@]43CCCc4sc(N)c(C#N)c43)n2)CC12CC2 [II-178]	6.09	6.83	<24	0.46
C[C@H](Oc1cc(N2Cc3cnn(C)c3C2)nc(-c2onc3c2CCC[C@@]32CCCc3sc(N)c(C#N)c32)n1)[C@@H]1CCCN1C [I-19]	5.52	7.25	<24	0.48
C[C@H](Oc1cc(N2C[C@@H]3[C@@H](N)[C@@H]3C2)nc(-c2noc3c2CCC[C@@]32CCCc3sc(N)c(C#N)c32)n1)[C@@H]1CCCN1C [II-167]	5.37	5.87	<24	0.26
C[C@H](Oc1cc(N2CC3COCC(C2)N3)nc(-c2noc3c2CCC[C@@]32CCCc3sc(N)c(C#N)c32)n1)[C@@H]1CCCN1C [II-160]	5.49	5.16	31	0.53
CC(C)N1CCCN(c2cc(-c3ccn(C)n3)nc(-c3noc4c3CCC[C@@]43CCCc4sc(N)c(C#N)c43)n2)[C@@H](C)C1 [II-170]	5.44	6.92	33	0.32
C[C@H]1CNCCCN1c1cc(-c2ccn(C)n2)nc(-c2noc3c2CCC[C@@]32CCCc3sc(N)c(C#N)c32)n1 [II-140]	4.67	6.53	<24	–
C[C@H](Oc1cc(-c2cccc(C(N)=O)c2)nc(-c2noc3c2CCC[C@@]32CCCc3sc(N)c(C#N)c32)n1)[C@@H]1CCCN1C [II-133]	5.57	7.05	<24	0.04
C[C@H](Oc1cc(-c2cn(C)nn2)nc(-c2onc3c2CCC[C@@]32CCCc3sc(N)c(C#N)c32)n1)[C@@H]1CCCN1C [I-16]	–	–	31	0.55
CC(C)N1CCCN(c2cc(-n3ccnc3)nc(-c3noc4c3CCC[C@@]43CCCc4sc(N)c(C#N)c43)n2)[C@@H](C)C1 [II-169]	5.43	6.50	39	–
C[C@H](Oc1cc([C@H]2CCNC2)nc(-c2noc3c2CCC[C@@]32CCCc3sc(N)c(C#N)c32)n1)[C@@H]1CCCN1C [II-163]	6.03	6.19	–	0.61
C[C@H]1CNCCCN1c1nc(-c2onc3c2CCC[C@@]32CCCc3sc(N)c(C#N)c32)cc(C(F)(F)F)n1 [I-15]	–	–	38	0.08
CCN1CCN(c2cc(O[C@@H](C)[C@@H]3C[C@@H](F)CN3C)nc(-c3noc4c3CCC[C@@]43CCCc4sc(N)c(C#N)c43)n2)CC12CC2 [II-185]	6.72	5.89	–	0.02
C[C@H](Oc1cc(-n2cncc3ccnc2-3)nc(-c2onc3c2CCC[C@@]32CCCc3sc(N)c(C#N)c32)n1)[C@@H]1CCCN1C [I-14]	5.47	7.15	–	0.1
C[C@H]1CNCCCN1c1cc(-n2ccnc2)nc(-c2noc3c2CCC[C@@]32CCCc3sc(N)c(C#N)c32)n1 [II-142]	4.99	5.66	–	–

Reference: patent publication US20240174690A1, “ANNULATED 2-AMINO-3-CYANO THIOPHENES AND DERIVATIVES FOR THE TREATMENT OF CANCER” (BOEHRINGER INGELHEIM INTERNATIONAL GMBH, priority 2021, published 2024)
